From patent US5342974A, “Halogenated anthraquinone and their use as near infrared rays absorbing optical filters” (Mitsui Toatsu Chemicals, Incorporated, priority 1987, dated 1994)

Test: Transmittance at 860 nm of the product dissolved in chloroform
Format: physicochemical
Conditions: 860 nm; chloroform; product/chloroform=4 mg/100 ml
Description: In order to use colorants consisted in such optical filters, fairly high purity is required. However conventional near infrared rays absorbing colorants have low purity and inadequate absorption characteristics and thus can scarecely be used. Particularly in case of a 1,4,5,8-tetraanilidoanthraquinone, the allowable limit of its transmittance in the vicinity of 860 nm is at a level of about 95 to about 96% (a concentration of the dissolved colorant at the time of the transmittance measurement is 4 mg per 100 ml of chloroform). If its transmittance is below this level, the transmission of semiconductor laser beams is hindered noticeably, and therefore it is difficult to use such a colorant as a near infrared rays absorbing filter for measuring equipment and the like where particularly high accuracy is required.
(§1) In general, laser beams used for the near infrared rays absorbing filters have a wavelength of 830 nm or more, but the wavelength depends upon use applications. In the examples described following, the most usual wavelength of about 860 nm was used to measure the transmittance of compounds represented by the formula (I), and the estimation was made by comparing absorption wave shapes.
A mixture of 10.87 parts of 99%-purity 1,4,5,8-tetrachloroanthraquinone recrystallized from chlorobenzene, 27.2 parts of p-toluidine, 31.3 parts of p-chloroaniline, 13.4 parts of potasssium acetate, 1.24 parts of copper sulfate and 3.41 parts of benzyl alcohol was heated 130° C. under a nitrogen gas flow and the reaction mixture was then maintained at this temperature for 6.5 hours. Afterward, the reaction mixture was cooled to 70° C. and was then poured into 217 parts of ethanol, followed by filtration, ethanol washing, water washing and drying. The resultant crude product was then subjected to recrystallization from pyridine, thereby obtaining 14.2 parts of desired 1-(p-chloroanilido)-4,5,8-tris(p-methylanilido)anthraquinone (yield=70%) in high purity. By the use of a high-speed liquid chromatography (made by Shimadzu Seisakusho Ltd., SHIM-PACK CLC-ODS column, acetonitrile development, detection at 254 nm), it was confirmed that the purity of the product was 99.5%. In addition, the transmittance at 860 nm of the product in chloroform was 99% (product/chloroform=4 mg/100 ml).
The same procedure as in Example 1 or 3 was repeated to synthesize the compounds shown in Table 1, and yield, purity and transmittance at 860 nm of each product were then measured. The respective substituents A, B, C and D in the table correspond to those of formula (I).
*The transmittance was measured at 860 nm in chloroform.

Row | transmittance at 860 nm of the product in chloroform | Compound
1 | 99% | Cc1ccc(Nc2ccc(Nc3ccc(C)cc3)c3c2C(=O)c2c(Nc4ccc(C)cc4)ccc(Nc4ccc(C)cc4)c2C3=O)cc1 [Comparative Example 1, 1,4,5,8-tetrakis(p-methylanilido)anthraquinone, reference compound]
2 | 99% | Cc1ccc(Nc2ccc(Nc3ccc(C)cc3)c3c2C(=O)c2c(Nc4ccc(C)cc4)ccc(Nc4ccc(Cl)cc4)c2C3=O)cc1 [Example 1, 1-(p-chloroanilido)-4,5,8-tris(p-methylanilido)anthraquinone]
3 | 99.2% | CCCCc1ccc(Nc2ccc(Nc3ccc(Cl)cc3)c3c2C(=O)c2c(Nc4ccc(CCCC)cc4)ccc(Nc4ccc(CCCC)cc4)c2C3=O)cc1 [Example 2, 1-(p-chloroanilido)-4,5,8-tris(p-n-butylanilido)anthraquinone]
4 | 99.6% | Cc1ccc(Nc2ccc(Nc3ccc(C)cc3)c3c2C(=O)c2c(Nc4ccc(Cl)cc4)ccc(Nc4ccc(Cl)cc4)c2C3=O)cc1 [Example 3, 1,4-bis(p-chloroanilido)-5,8-bis(p-methylanilido)anthraquinone]

Same assay, conditions: measured at 860 nm in chloroform (Table 1)

Row | Transmittance* | Compound
5 | 98.8% | O=C1c2c(Nc3ccccc3)ccc(Nc3ccccc3)c2C(=O)c2c(Nc3ccc(Cl)cc3)ccc(Nc3ccccc3)c21 [Example 4]
6 | 98.9% | COc1ccc(Nc2ccc(Nc3ccc(Cl)cc3)c3c2C(=O)c2c(Nc4ccc(OC)cc4)ccc(Nc4ccc(OC)cc4)c2C3=O)cc1 [Example 5]
7 | 100% | O=C1c2c(Nc3ccc(Cl)cc3)ccc(Nc3ccc(Cl)cc3)c2C(=O)c2c(Nc3ccc(Cl)cc3)ccc(Nc3ccc(Cl)cc3)c21 [Example 6]
8 | 99.2% | O=C1c2c(Nc3ccc(Cl)cc3)ccc(Nc3ccc(C4CCCCC4)cc3)c2C(=O)c2c(Nc3ccc(C4CCCCC4)cc3)ccc(Nc3ccc(C4CCCCC4)cc3)c21 [Example 7]
9 | 98.5% | O=C1c2c(Nc3ccc(O)cc3)ccc(Nc3ccc(O)cc3)c2C(=O)c2c(Nc3ccc(Cl)cc3)ccc(Nc3ccc(Cl)cc3)c21 [Example 8]
10 | 99.5% | Cc1ccc(Nc2ccc(Nc3ccc(Cl)cc3)c3c2C(=O)c2c(Nc4ccc(C5CCCCC5)cc4)ccc(Nc4ccc(C)cc4)c2C3=O)cc1 [Example 9]
11 | 99.2% | Cc1ccc(Nc2ccc(Nc3ccc(C)cc3)c3c2C(=O)c2c(Nc4ccc(C)cc4)ccc(Nc4ccc(F)cc4)c2C3=O)cc1 [Example 10]
12 | 98.2% | Cc1ccc(Nc2ccc(Nc3ccc(C)cc3)c3c2C(=O)c2c(Nc4ccc(C)cc4)ccc(Nc4cccc(Br)c4)c2C3=O)cc1 [Example 11]
13 | 99.6% | COc1ccc(Nc2ccc(Nc3ccc(OC)cc3)c3c2C(=O)c2c(Nc4ccc(OC)cc4)ccc(Nc4cccc(F)c4)c2C3=O)cc1 [Example 12]
14 | 99.1% | Cc1ccc(Nc2ccc(Nc3ccc(C4CCCCC4)cc3)c3c2C(=O)c2c(Nc4ccc(Br)cc4)ccc(Nc4ccc(C5CCCCC5)cc4)c2C3=O)cc1 [Example 13]

Test: Transmittance-versus-wavelength curve in chloroform (FIG. 1), judged as a near infrared filter
Format: physicochemical
Conditions: curve 3 of FIG. 1
Description: FIG. 1 is a graph illustrating transmittance to wavelength of a solution in chloroform of the compounds of Examples 1 and 3 and Comparative Example 1, in which carves 1, 2 and 3 are the absorption curves of the compounds of Example 1, Example 3 and Comparative Example i respectively.
In the anthraquinone of present invention, at least one of four anilido benzene rings is substituted by a halogen atom such as chlorine, fluorine and bromine, which preferably is in the p-position. The anthraquinone bearing a halogen atom realizes a wave shape of the light absorption of the absorption curves of these compounds render them very suitable for near infrared rays absorbing filters. That is, the anthraquinone bearing a halogen atom can mostly absorb the light in the wavelength range of 700 to 800 nm and realize the transmittance curve which is steeper slope in vicinity of 800 nm than one of other anthraquinone bearing no halogen atom.
as §1, with “shapes. […]” for “shapes.”

Row | transmission of the product in a 800-830 wavelength range | Compound
15 | poor | Cc1ccc(Nc2ccc(Nc3ccc(C)cc3)c3c2C(=O)c2c(Nc4ccc(C)cc4)ccc(Nc4ccc(C)cc4)c2C3=O)cc1 [Comparative Example 1, 1,4,5,8-tetrakis(p-methylanilido)anthraquinone, reference compound]
